Assay results reported in patent US9181266B2, “2-piperidin-1-yl-acetamide compounds for use as tankyrase inhibitors” (NOVARTIS AG, priority 2011, dated 2015).
Several values for one entry are separate records, joined by “and”; a condition that tells them apart may be missing. Equal values may be shown once. Read-outs that look alike come from different tables or passages of the source.

What was measured:
[1] = biological target: tankyrase 2 protein PARP domain, TNKS2P (Homo sapiens (Human), UniProt Q9H2K2); assay: TNKS2 autoparsylation assay (LC/MS detection of nicotinamide); conditions: read-out: TNKS2 AP IC50, 20 nM enzyme, 250 μM β-NAD+, 60 min
tankyrase 2 protein PARP domain, TNKS2P, sequence (Q9H2K2 959-1164): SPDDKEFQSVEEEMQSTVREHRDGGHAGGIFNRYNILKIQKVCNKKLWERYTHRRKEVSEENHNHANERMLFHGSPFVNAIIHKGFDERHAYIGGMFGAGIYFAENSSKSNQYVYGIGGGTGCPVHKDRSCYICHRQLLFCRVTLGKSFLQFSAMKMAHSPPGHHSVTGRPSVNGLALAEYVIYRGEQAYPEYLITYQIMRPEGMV

[2] = biological target: Human PARP1 (Homo sapiens (Human), UniProt P09874); assay: PARP1 autoparsylation assay (LC/MS detection of nicotinamide); format: biochemical; conditions: 20 nM enzyme, 250 μM β-NAD+, 60 min
Human PARP1, sequence (P09874 whole entry): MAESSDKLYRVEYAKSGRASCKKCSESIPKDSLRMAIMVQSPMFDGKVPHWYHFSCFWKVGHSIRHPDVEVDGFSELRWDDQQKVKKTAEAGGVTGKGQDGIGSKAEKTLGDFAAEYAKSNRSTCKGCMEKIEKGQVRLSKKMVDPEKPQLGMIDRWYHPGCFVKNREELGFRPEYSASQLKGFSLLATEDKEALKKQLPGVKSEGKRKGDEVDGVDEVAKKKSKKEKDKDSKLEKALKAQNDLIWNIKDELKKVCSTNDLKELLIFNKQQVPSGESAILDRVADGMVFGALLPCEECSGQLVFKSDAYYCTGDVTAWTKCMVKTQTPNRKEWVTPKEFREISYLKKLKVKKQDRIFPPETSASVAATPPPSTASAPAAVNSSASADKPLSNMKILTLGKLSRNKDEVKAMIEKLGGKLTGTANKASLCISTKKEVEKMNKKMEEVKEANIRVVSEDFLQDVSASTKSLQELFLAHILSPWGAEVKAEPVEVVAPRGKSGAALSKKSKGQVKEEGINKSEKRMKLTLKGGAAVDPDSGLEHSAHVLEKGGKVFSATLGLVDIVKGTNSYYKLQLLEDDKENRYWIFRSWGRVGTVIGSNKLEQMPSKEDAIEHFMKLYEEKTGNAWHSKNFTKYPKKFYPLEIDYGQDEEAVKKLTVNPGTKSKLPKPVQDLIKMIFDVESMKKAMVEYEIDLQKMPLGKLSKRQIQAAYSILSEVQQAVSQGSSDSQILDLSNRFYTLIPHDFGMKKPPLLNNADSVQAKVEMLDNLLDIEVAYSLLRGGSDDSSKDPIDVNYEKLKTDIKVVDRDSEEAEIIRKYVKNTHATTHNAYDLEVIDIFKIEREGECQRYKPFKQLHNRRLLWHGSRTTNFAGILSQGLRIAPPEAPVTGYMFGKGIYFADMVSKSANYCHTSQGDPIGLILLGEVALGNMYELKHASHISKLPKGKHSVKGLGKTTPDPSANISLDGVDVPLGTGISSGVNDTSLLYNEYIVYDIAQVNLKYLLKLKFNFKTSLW
Procedure: (§1) The autoparsylation activity of the TNKS 1/2 or PARP1/2 enzymes was measured by the liquid chromatography-mass spectrometry (LC/MS) detection of nicotinamide as readout. Compound activity in inhibiting the TNKS and PARP autoparsylation was evaluated by IC50 measurements.

[3] = biological target: human tankyrase 1 PARP catalytic domain, TNKS1P (Homo sapiens (Human), UniProt O95271); assay: TNKS1 autoparsylation assay (LC/MS detection of nicotinamide); conditions: read-out: TNKS1 AP IC50, 20 nM enzyme, 250 μM β-NAD+, 60 min
human tankyrase 1 PARP catalytic domain, TNKS1P, sequence (O95271 1112-1317): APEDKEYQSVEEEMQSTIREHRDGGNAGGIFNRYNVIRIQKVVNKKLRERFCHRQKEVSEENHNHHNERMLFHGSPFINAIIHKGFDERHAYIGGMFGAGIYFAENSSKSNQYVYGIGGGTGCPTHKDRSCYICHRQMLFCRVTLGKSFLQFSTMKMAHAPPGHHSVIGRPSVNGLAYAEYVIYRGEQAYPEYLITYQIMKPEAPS
Procedure: Biochemical Assay to Determine Compound Inhibition of TNKS Enzyme Activity
The autoparsylation activity of the TNKS 1/2 or PARP1/2 enzymes was measured by the liquid chromatography-mass spectrometry (LC/MS) detection of nicotinamide as readout. Compound activity in inhibiting the TNKS and PARP autoparsylation was evaluated by IC50 measurements. […] For the background control wells, 10 μL of the 5× quenching solution per well was added prior to the addition of β-NAD^+. The % Inhibition was calculated as: (Control−Sample)/(Control−Background)*100.

[4] = tested on: Axin2 protein in SW480 cells; assay: Cellular ELISA assay of Axin2 protein stabilization; format: cell-based; conditions: Homo sapiens, 24 hrs, read-out: Axin AC50
Procedure: Cellular ELISA Assay to Determine Compound Effect on Stabilizing the Axin2 Protein Compound activity in stabilizing the Axin2 protein was measured by Sandwich Enzyme-Linked Immuosorbent (ELISA) assay in the colorectal cell line SW480. 30,000 SW480 cells were seeded per well in 96-well plate and incubated overnight prior to compound treatment. […] Cells were then washed with 100 μL of cold Phosphate Buffer Saline (PBS), and lysed in 125 μl of cold 1× lysis buffer (Cell Signaling Technology, 9803) supplemented with Protease inhibitor (Roche, 11836170) and Phosphatase inhibitors (Sigma, P2850, P5726). For the ELISA assay, anti Axin-2 capture antibody (Strategic Diagnostics) antibody was diluted to a concentration of 1 μg/ml (1:1000) in Carbonate Coating buffer, pH 9.2 (Sigma, C3041-50CAP). […], of the diluted anti Axin-2 capture antibody per well was then used to coat the 96-well ELISA plate (Thermo Electron Corp., MicroLite 1 flat bottom plate #7571) overnight at 4° C. […] After blocking, plates were then washed three times with 300 μl/well of wash solution. 100 μL of prepared SW480 cell lysate was then added to each well and incubated at room temperature for 2 hours while shaking gently. After washing, 100 μL of Biotinylated anti-Axin2 antibody (CST, 2151) was added to each well and incubated room temperature for 2 hours. 100 μL of Streptavidin-HRP (R&D systems, DY998) diluted 1:200 in 1% BSA/PBS was then added in each well and incubate for 30 mins at R/T in the dark.

[5] = biological target: PARP2 (Mus musculus (Mouse), UniProt O88554); assay: PARP2 autoparsylation assay (LC/MS detection of nicotinamide); format: biochemical; conditions: 20 nM enzyme, 250 μM β-NAD+, 60 min
PARP2, sequence (O88554 whole entry): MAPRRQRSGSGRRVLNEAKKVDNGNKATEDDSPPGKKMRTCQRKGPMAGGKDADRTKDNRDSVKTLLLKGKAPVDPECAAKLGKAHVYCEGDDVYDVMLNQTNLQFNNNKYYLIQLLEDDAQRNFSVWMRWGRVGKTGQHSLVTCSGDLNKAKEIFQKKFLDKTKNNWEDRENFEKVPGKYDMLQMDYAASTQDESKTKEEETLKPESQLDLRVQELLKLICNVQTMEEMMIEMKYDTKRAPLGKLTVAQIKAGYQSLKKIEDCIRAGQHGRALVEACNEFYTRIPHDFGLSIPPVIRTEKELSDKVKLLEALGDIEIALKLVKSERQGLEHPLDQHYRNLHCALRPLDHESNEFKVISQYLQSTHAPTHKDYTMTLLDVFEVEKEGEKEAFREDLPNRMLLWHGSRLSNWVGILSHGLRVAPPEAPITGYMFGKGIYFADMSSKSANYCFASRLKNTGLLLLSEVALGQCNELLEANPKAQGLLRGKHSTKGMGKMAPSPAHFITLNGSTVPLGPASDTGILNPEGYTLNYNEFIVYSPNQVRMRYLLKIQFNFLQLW
Procedure: as §1

[6] = tested on: Wnt ligand-induced signaling in HEK293 cells; assay: Wnt-responsive Super-TOpFlash (STF) luciferase reporter gene assay; format: cell-based; conditions: Homo sapiens, Wnt3A condition medium
Procedure: Cellular Reporter Gene Assay to Determine Compound Inhibition of Wnt Signaling Activity
Compound activity in inhibiting Wnt ligand-induced signaling was measured using a Wnt-responsive Super-TOpFlash (STF) luciferase reporter gene assay in HEK293 cells. On day 1 of the assay, cells were plated at a density of 8000 cells per well of 384-well plate in 25 μl medium containing 5% fetal bovine serum (FBS). On the second day, […] condition medium (CM) produced from mouse L cells was added to the cells to induce Wnt signaling, followed by addition of 5 μL of compounds each well in 10-point serial dilution. On the third day, the luciferase activity was measured by the Bright-Glo™ Luciferase Assay System following manufacture's protocol (Promega, E2620). The Inhibition was calculated as: (Maximum Wnt-induced signaling−Sample)/(Maximum Wnt-induced signaling−Background)*100. “Maximum Wnt-induced signaling” is the STF signal level induced by 20% Wnt3A CM without compound; and “Background” is the STF signal level without the addition of Wnt3A CM or compound.

[7] = tested on: Non-small lung cancer ABC-1 cells; assay: Cellular proliferation assay (CellTiter-Glo); format: cell-based; conditions: Homo sapiens, read-out: ABC-1 IC50
Procedure: Cellular Proliferation Assay to Determine Compound Inhibition of Cancer Cell Growth
Viable cells were measured after 3 days of compound treatment using the CellTiter-Glo assay (Promega, G7570). Assay was performed following the manufacture protocol.

[8] = 72 h, ABC-1 cells, 3 days of compound treatment

Row | Structure (SMILES) | IC50 [1] [nM] | IC50 [2] | IC50 [3] [nM] | AC50 [4] [nM] | IC50 [5] [nM] | IC50 [6] [nM] | IC50 ([7]; ABC-1, 72 h) [nM] | IC50 [7, 8] [nM]
1 | COc1ccc(C(=O)C2CCN(CC(=O)NCc3cc4c(c(=O)[nH]3)COCC4)CC2)cc1 [Example 97, 2-[4-(4-Methoxy-benzoyl)-piperidin-1-yl]-N-(8-oxo-3,4,7,8-tetrahydro-1H-pyrano[3,4-c]pyridin-6-ylmethyl)-acetamide] | 27 ± 1 | 7500 ± 400 nM | 100 ± 10 | 266 ± 58 | 1150 ± 9 |  |  | 
2 | C#CCN(Cc1nc2c(c(=O)[nH]1)COCC2)C(=O)CN1CCC(C(=O)c2ccc(F)cc2)CC1 [Example 27, 2-(4-(4-Fluorobenzoyl)piperidin-1-yl)-N-((4-oxo-4,5,7,8-tetrahydro-3H-pyrano[4,3-d]pyrimidin-2-yl)methyl)-N-(prop-2-ynyl)acetamide] | 14 ± 1 | > 19000 nM | 43 ± 1 | 3640 ± 660 | > 19000 | 53 ± 45 |  | 
3 | COc1cccc(C(=O)C2CCN(CC(=O)N(Cc3nc4c(c(=O)[nH]3)COCC4)CC(F)F)CC2)c1 [Example 73, N-(2,2-Difluoro-ethyl)-2-[4-(3-methoxy-benzoyl)-piperidin-1-yl]-N-(4-oxo-3,5,7,8-tetrahydro-4H-pyrano[4,3-d]pyrimidin-2-ylmethyl)-acetamide] | 16 ± 2 | > 19000 nM | 49 ± 1 | > 10000 | > 19000 | 470 ± 150 |  | 
4 | C[C@@H](c1ccccc1)N(Cc1nc2c(c(=O)[nH]1)COCC2)C(=O)CN1CCC(C(=O)c2ccc(F)cc2)CC1 [Example 23, 2-[4-(4-Fluoro-benzoyl)-piperidin-1-yl]-N-(4-oxo-3,5,7,8-tetrahydro-4H-pyrano[4,3-d]pyrimidin-2-ylmethyl)-N—((S)-1-phenyl-ethyl)-acetamide] | 50 ± 1 | > 19000 nM | 209 ± 3 |  | > 19000 | 189 ± 76 |  | 
5 | CCOc1ccc(C(=O)C2CCN(CC(=O)NCc3nc4c(c(=O)[nH]3)COCC4)CC2)cc1 [Example 66, 2-(4-(4-Ethoxybenzoyl)piperidin-1-yl)-N-((4-oxo-4,5,7,8-tetrahydro-3H-pyrano[4,3-d]pyrimidin-2-yl)methyl)acetamide] | 9 ± 7 | 6500 ± 1300 nM | 27 ± 10 | > 10000 | 3200 ± 1000 | 5690 ± 170 |  | 
6 | COc1ccc(C(=O)C2CCN(CC(=O)N(Cc3nc4c(c(=O)[nH]3)CCCC4)CC3CC3)CC2)cc1 [Example 8, N-(Cyclopropylmethyl)-2-(4-(4-methoxybenzoyl)piperidin-1-yl)-N-((4-oxo-3,4,5,6,7,8-hexahydroquinazolin-2-yl)methyl)acetamide] |  |  |  | 13 ± 3 | 9140 ± 210 | 3 ± 1 | 22 | 
7 | O=C(CN1CCC(c2noc3cc(F)ccc23)CC1)NCc1nc2c(c(=O)[nH]1)COCC2 [Example 51, 2-(4-(6-Fluorobenzo[d]isoxazol-3-yl)piperidin-1-yl)-N-((4-oxo-4,5,7,8-tetrahydro-3H-pyrano[4,3-d]pyrimidin-2-yl)methyl)acetamide] | 43 ± 2 | 7630 ± 320 nM | 207 ± 17 |  | 3090 ± 390 |  |  | 
8 | O=C(CN1CCC(n2c(=O)[nH]c3ccccc32)CC1)NCc1nc2c(c(=O)[nH]1)COCC2 [Example 82, 2-(4-(2-Oxo-2,3-dihydro-1H-benzo[d]imidazol-1-yl)piperidin-1-yl)-N-((4-oxo-4,5,7,8-tetrahydro-3H-pyrano[4,3-d]pyrimidin-2-yl)methyl)acetamide] | 39 ± 3 | 32400 ± 4600 nM | 222 ± 2 |  | 2900 ± 900 | 787 ± 23 |  | 
9 | N#CCN(Cc1nc2c(c(=O)[nH]1)COCC2)C(=O)CN1CCC(C(=O)c2ccc(F)cc2)CC1 [Example 43, N-Cyanomethyl-2-[4-(4-fluoro-benzoyl)-piperidin-1-yl]-N-(4-oxo-3,5,7,8-tetrahydro-4H-pyrano[4,3-d]pyrimidin-2-ylmethyl)-acetamide] |  | > 19000 nM and 42900 nM | > 19000 |  |  | 362 |  | 
10 | COc1ccc(C(=O)C2CCN(CC(=O)NCc3nc4c(c(=O)[nH]3)CCCC4)CC2)cc1 [Example 9, 2-(4-(4-Methoxybenzoyl)piperidin-1-yl)-N-((4-oxo-3,4,5,6,7,8-hexahydroquinazolin-2-yl)methyl)acetamide] |  |  |  | 9 ± 2 | 243 ± 66 | 3 ± 3 | 41 | 
11 | O=C(c1ccc(Cl)cc1)C1CCN(CC(=O)N(Cc2nc3c(c(=O)[nH]2)COCC3)CC(F)F)CC1 [Example 69, 2-[4-(4-Chloro-benzoyl)-piperidin-1-yl]-N-(2,2-difluoro-ethyl)-N-(4-oxo-3,5,7,8-tetrahydro-4H-pyrano[4,3-c]pyrimidin-2-ylmethyl)-acetamide] | 18 ± 1 |  | 35 ± 4 | 930 ± 450 |  | 20 ± 9 |  | 709
12 | O=C(CN1CCC(C(=O)N2CCc3ccccc3C2)CC1)NCc1nc2c(c(=O)[nH]1)COCC2 [Example 79, N-((4-Oxo-4,5,7,8-tetrahydro-3H-pyrano[4,3-d]pyrimidin-2-yl)methyl)-2-(4-(1,2,3,4-tetrahydroisoquinoline-2-carbonyl)piperidin-1-yl)acetamide] | 815 ± 28 |  | 3020 ± 49 | 27 ± 3 |  | 6.5 ± 2.7 |  | 26
13 | O=C(c1cccc(OC(F)(F)F)c1)C1CCN(CC(=O)N(Cc2nc3c(c(=O)[nH]2)COCC3)CC(F)F)CC1 [Example 74, N-(2,2-Difluoro-ethyl)-N-(4-oxo-3,5,7,8-tetrahydro-4H-pyrano[4,3-d]pyrimidin-2-ylmethyl)-2-[4-(3-trifluoromethoxy-benzoyl)-piperidin-1-yl]-acetamide] | 38 ± 4 |  | 155 ± 15 | 508 ± 50 |  | 35.1 ± 3.4 |  | 590
14 | COc1ccc(C(=O)C2CCN(CC(=O)N(Cc3nc4c(c(=O)[nH]3)CCCCC4)CC3CC3)CC2)cc1 [Example 7, N-(Cyclopropylmethyl)-2-(4-(4-methoxybenzoyl)piperidin-1-yl)-N-((4-oxo-4,5,6,7,8,9-hexahydro-3H-cyclohepta[d]pyrimidin-2-yl)methyl)acetamide] | 371 ± 3 |  | 714 ± 5 | 680 ± 90 |  | 180 ± 70 |  | 691
15 | CCOc1ccc(C(=O)C2CCN(CC(=O)NCc3nc4c(c(=O)[nH]3)COCC4)CC2)cc1F [Example 95, 2-[4-(4-Ethoxy-3-fluoro-benzoyl)-piperidin-1-yl]-N-(4-oxo-3,5,7,8-tetrahydro-4H-pyrano[4,3-c]pyrimidin-2-ylmethyl)-acetamide] | 16 ± 5 |  | 38 ± 3 | 26 ± 7 |  | 6.6 ± 0.7 |  | 32 ± 5
16 | O=C(CN1CCC(C(=O)c2ccc3c(c2)OCO3)CC1)NCc1nc2c(c(=O)[nH]1)COCC2 [Example 92, 2-[4-(Benzo[1,3]dioxole-5-carbonyl)-piperidin-1-yl]-N-(4-oxo-3,5,7,8-tetrahydro-4H-pyrano[4,3-c]pyrimidin-2-ylmethyl)-acetamide] | 43 |  | 129 ± 1 | 154 ± 25 |  | 9.1 ± 1.2 |  | 346
